Laboratory results as given in patent publication US4362870A, “Selective opioid receptor alkylating agents” (priority 1981, dated 1982).
Read-outs that look alike come from different tables or passages of the source.

Tests used:
[1] = tested on: electrically stimulated guinea pig ileal longitudinal muscle; test: cells; format: cell-based; conditions: for IC50 Ratio FNA/Control: agonist IC50 after FNA (2 × 10^-8, 30 min, 20 washes) / control
effects of morphine [2] = test: Duration of inhibitory effect on morphine (species not given); format: in vivo
Source text: (§1) The vertical bars represent 95% confidence intervals of the ED50 values.

effects of morphine [3] = test: Duration of inhibitory effect on morphine, rat; format: in vivo; conditions: HCl salt; 5 mg/kg i.p. in the rat
Source text: as §1

[4] = Toxic effects at a single dose; format: in vivo; conditions: single dose which completely blocks morphine for at least three days
[5] = tested on: analgesic response of mice; test: Analgesic response of mice to FNA; format: in vivo, mouse
Protocol: FIG. 2 is a graphic representation of the analgesic response of mice to FNA.
The analgesic response of mice to FNA was tested.

morphine analgesia = test: Duration of inhibitory effect on morphine analgesia, mouse; format: in vivo; conditions: HCl salt; 4.8 nmol/mouse intracebroventricular
Protocol: At 4.8 nmol/mouse (intracebroventricular) or at 5 mg/kg i.p. in the rat, the antagonist effects of FNA (as its HCl salt) lasted at least three days (FIG. 1). The vertical bars represent 95% confidence intervals of the ED50 values.

[6] = tested on: electrically stimulated guinea pig ileal longitudinal muscle strip; test: Guinea pig ileum: morphine IC50 ratio before and after exposure to the test compound (Examples V-XIV); format: cell-based; conditions: 30 min exposure, 20 washes
Protocol: Details of the assay are found in Rang, Br. J. PHarmacol., 22, 356 (1964).
of the electrically stimulated guinea pig ileal longitudinal muscle strip
(treated) exposure (30 min) of the ileal preparation to the test compound
(2 × 10^-8 M) followed by 20 washes are expressed as a ratio, […]

[7] = background statement; cited from earlier work
[8] = tested on: β-endorphin-induced stimulation of food intake; conditions: prior report; cited from earlier work

Q: Which IC50 ([1]; after FNA (2 × 10^-8) incubated 30 minutes, washed 20 times, read-out: IC50 After FNA) does the source give for `CSCC[C@H](NC(=O)[C@H](Cc1ccccc1)NC(=O)CNC(=O)[C@@H](C)NC(=O)[C@@H](N)Cc1ccc(O)cc1)C(N)=O` [D-Ala^2 -- Met-- enkephlin- Amide] here?
A: 29.1 nM

Q: And the “IC50 Ratio FNA/Control” value [1]?
A: 6.9

Q: What about the IC50 ([1]; control, before FNA, guinea pig ileum, read-out: IC50 Control) of the same molecule?
A: 4.2 nM

Q: Which “duration of complete block of the effects of morphine” value (effects of morphine [2]; single dose) does the source give for `COC(=O)/C=C/C(=O)N[C@@H]1CC[C@@]2(O)[C@H]3Cc4ccc(O)c5c4[C@@]2(CCN3CC2CC2)[C@H]1O5` [FNA, fumarnaltrexamine] here?
A: at least three

Q: What about the “duration of antagonist effects” value (effects of morphine [3]) of the same molecule?
A: at least three

Q: And the “inhibition of agonist effects of nalorphine or pentazocine” value ([1]; FNA 2×10^-8 M, 30 minutes)?
A: did not inhibit the agonist effects of nalorphine or pentazocine

Q: What about the “inhibition of response to morphine and enkephalin” value ([1]; FNA 2×10^-8 M, 30 minutes) of the same molecule?
A: inhibited irreversibly

Q: And the “block of agonist effects of morphine, enkephalin, pentazocine and nalorphine (selectivity)” value ([1]; electrically stimulated guinea pig ileum, summary statement in description)?
A: irreversibly block the agonist effects of morphine or enkephalin but not the agonist effects of pentazocine or nalorphine

Q: And the toxic effects [4]?
A: no toxic effects

Q: What about the analgesia [5] of the same molecule?
A: reversible analgesia

Q: And the “reversal of analgesia by its own antagonistic properties” value [5]?
A: not reversed by its own antagonistic properties

Q: And the “duration of antagonist effects” value (morphine analgesia)?
A: at least three

Q: Which “IC50 Ratio, morphine IC50 (treated)/morphine IC50 (control)” value (“IC50 Ratio, morphine IC50” below) ([6]; test compound 2 × 10^-8 M) does the source give for `CC(=O)/C=C/C(=O)N[C@@H]1CC[C@@]2(O)[C@H]3Cc4ccc(O)c5c4[C@@]2(CCN3CC2CC2)[C@H]1O5` [IX] here?
A: 6.4

Q: For `C=CCN1CC[C@]23c4c5ccc(O)c4O[C@H]2[C@@H](O)C=C[C@H]3[C@H]1C5` [Nalorphine], which IC50 ([1]; Cavia porcellus, 0.5 h, after FNA (2 × 10^-8) incubated 30 minutes, washed 20 times, read-out: IC50 After FNA) is on record?
A: 25.2 nM

Q: What about the IC50 ([1]; Cavia porcellus, control, before FNA, guinea pig ileum, read-out: IC50 Control) of the same molecule?
A: 28.1 nM

Q: And the “IC50 Ratio FNA/Control” value [1]?
A: 0.9

Q: For `O=C(/C=C/C(=O)OCCc1ccccc1)N[C@@H]1CC[C@@]2(O)[C@H]3Cc4ccc(O)c5c4[C@@]2(CCN3CC2CC2)[C@H]1O5` [VIII], which “IC50 Ratio, morphine IC50” value ([6]; test compound 2 × 10^-8 M) is on record?
A: 12.8

Q: With `O=C(/C=C/C(=O)OCc1ccccc1)N[C@@H]1CC[C@@]2(O)[C@H]3Cc4ccc(O)c5c4[C@@]2(CCN3CC2CC2)[C@H]1O5` [VII] as the molecule, how does the “IC50 Ratio, morphine IC50” value ([6]; test compound 2 × 10^-8 M) read?
A: 3.4

Q: For `CCCOC(=O)/C=C/C(=O)N[C@@H]1CC[C@@]2(O)[C@H]3Cc4ccc(O)c5c4[C@@]2(CCN3CC2CC2)[C@H]1O5` [VI], which “IC50 Ratio, morphine IC50” value ([6]; test compound 2 × 10^-8 M) is on record?
A: 4.4

Q: With `CCOC(=O)/C=C/C(=O)N[C@@H]1CC[C@@]2(O)[C@H]3Cc4ccc(O)c5c4[C@@]2(CCN3CC2CC2)[C@H]1O5` [V] as the molecule, how does the “IC50 Ratio, morphine IC50” value ([6]; test compound 2 × 10^-8 M) read?
A: 2.8

Q: Which “IC50 Ratio, morphine IC50” value ([6]; test compound 2 × 10^-8 M) does the source give for `Oc1ccc2c3c1O[C@H]1[C@H](N=C=S)CC[C@@]4(O)[C@@H](C2)N(CC2CC2)CC[C@]314` [XIII] here?
A: 2.3

Q: For `O=C(CI)N[C@@H]1CC[C@@]2(O)[C@H]3Cc4ccc(O)c5c4[C@@]2(CCN3CC2CC2)[C@H]1O5` [XII], which “IC50 Ratio, morphine IC50” value ([6]; test compound 10^-6 M) is on record?
A: 25.6

Q: With `C=CCN1CC[C@]23c4c5ccc(O)c4O[C@H]2[C@H](NC(=O)/C=C/C(=O)OC)CC[C@@]3(O)[C@H]1C5` [XIV] as the molecule, how does the “IC50 Ratio, morphine IC50” value ([6]; test compound 10^-7 M) read?
A: 6.4

Q: Which “IC50 Ratio, morphine IC50” value ([6]; test compound 2 × 10^-8 M) does the source give for `C=C(Cl)C(=O)N[C@@H]1CC[C@@]2(O)[C@H]3Cc4ccc(O)c5c4[C@@]2(CCN3CC2CC2)[C@H]1O5` [XI] here?
A: 8.2

Q: For `C=CC(=O)N[C@@H]1CC[C@@]2(O)[C@H]3Cc4ccc(O)c5c4[C@@]2(CCN3CC2CC2)[C@H]1O5` [X], which “IC50 Ratio, morphine IC50” value ([6]; test compound 2 × 10^-8 M) is on record?
A: 1.9

Q: Which hypotensive action [7] does the source give for `CC(C)C[C@H](NC(=O)[C@H](Cc1ccccc1)NC(=O)CNC(=O)CNC(=O)[C@@H](N)Cc1ccc(O)cc1)C(=O)O` [enkephalin] here?
A: potent hypotensive agents

Q: Which results are given for `C=CCN1CC[C@]23c4c5ccc(O)c4O[C@H]2C(=O)CC[C@@]3(O)[C@H]1C5` [naloxone, reference compound]?
A: antagonistic effect (effects of morphine [2]; tested 2 hours after administration): its effect had already dissipated; block of β-endorphin-induced stimulation of food intake [8]: blocked
